Data taken from publication PMC12136037, “Type II kinase inhibitors that target Parkinson’s disease–associated LRRK2” (Science Advances, 2025).
Like-named read-outs stand apart in the source and are kept apart here.

Key:
Test in all cases: DSF 100 kinase selectivity screen;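 also: compound tested at 20 µM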
Assay type in all cases: binding
[1] = biological target: T1, ~100 representative kinases (Homo sapiens, UniProt P00519)
T1 construct: Recombinant protein kinase domains with a concentration of 2 μM
T1 sequence (P00519 whole entry, the tested form may be a part): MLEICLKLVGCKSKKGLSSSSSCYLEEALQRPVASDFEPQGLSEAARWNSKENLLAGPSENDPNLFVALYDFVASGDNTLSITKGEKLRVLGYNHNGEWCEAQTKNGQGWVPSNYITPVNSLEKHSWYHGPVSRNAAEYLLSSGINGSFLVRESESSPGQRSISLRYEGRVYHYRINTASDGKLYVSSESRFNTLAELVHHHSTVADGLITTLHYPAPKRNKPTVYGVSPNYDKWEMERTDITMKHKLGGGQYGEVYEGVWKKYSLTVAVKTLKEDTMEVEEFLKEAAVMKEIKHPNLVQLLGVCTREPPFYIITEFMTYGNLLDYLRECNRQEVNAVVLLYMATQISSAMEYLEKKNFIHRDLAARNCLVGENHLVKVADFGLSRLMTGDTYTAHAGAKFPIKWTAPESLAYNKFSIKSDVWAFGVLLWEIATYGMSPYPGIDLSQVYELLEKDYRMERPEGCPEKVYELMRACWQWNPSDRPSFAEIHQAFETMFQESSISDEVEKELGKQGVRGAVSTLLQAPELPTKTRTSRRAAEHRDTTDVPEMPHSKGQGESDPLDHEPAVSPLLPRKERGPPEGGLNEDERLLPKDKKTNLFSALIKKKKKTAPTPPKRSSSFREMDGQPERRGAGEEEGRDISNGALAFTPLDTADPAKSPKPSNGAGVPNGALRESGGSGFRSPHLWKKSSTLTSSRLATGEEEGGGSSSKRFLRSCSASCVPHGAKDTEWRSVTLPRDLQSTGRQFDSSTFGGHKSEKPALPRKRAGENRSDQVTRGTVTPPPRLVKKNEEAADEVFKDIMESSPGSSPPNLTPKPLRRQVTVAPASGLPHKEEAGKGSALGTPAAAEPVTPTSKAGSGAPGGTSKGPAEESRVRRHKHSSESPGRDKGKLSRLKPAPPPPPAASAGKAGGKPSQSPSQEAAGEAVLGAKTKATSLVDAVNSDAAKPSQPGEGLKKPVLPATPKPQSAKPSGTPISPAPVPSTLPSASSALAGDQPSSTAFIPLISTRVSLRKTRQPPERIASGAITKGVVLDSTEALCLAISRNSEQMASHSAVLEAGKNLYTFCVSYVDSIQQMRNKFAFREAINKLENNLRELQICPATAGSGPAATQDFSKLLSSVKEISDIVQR
In short: (§1)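 Each kinase domain, at 2 μM, is mixed with 20 μM test compound and SYPRO Orange in Hepes (20 mM, pH 7.5) with 500 mM NaCl. Temperature is then raised at 3°C/min and fluorescence-monitored unfolding yields the melting temperature change, ΔTm in degrees Celsius.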

[2] = biological target: T2, ~100 representative kinases (Homo sapiens, UniProt P11309); conditions: protein PIM1; average of three replicates
T2 construct: Recombinant protein kinase domains with a concentration of 2 μM
T2 sequence (P11309 whole entry, the tested form may be a part): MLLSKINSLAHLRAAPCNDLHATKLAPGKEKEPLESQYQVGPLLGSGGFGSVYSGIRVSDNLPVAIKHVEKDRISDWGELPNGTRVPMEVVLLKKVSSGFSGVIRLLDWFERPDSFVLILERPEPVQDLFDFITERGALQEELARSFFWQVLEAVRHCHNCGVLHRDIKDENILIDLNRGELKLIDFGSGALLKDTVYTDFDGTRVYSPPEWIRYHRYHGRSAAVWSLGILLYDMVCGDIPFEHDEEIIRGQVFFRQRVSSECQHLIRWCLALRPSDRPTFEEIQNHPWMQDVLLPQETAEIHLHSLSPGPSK
In short: as §1

[3] = biological target: T3, ~100 representative kinases (Homo sapiens, UniProt P27448); conditions: protein MARK3; average of three replicates
T3 construct: Recombinant protein kinase domains with a concentration of 2 μM
T3 sequence (P27448 whole entry, the tested form may be a part): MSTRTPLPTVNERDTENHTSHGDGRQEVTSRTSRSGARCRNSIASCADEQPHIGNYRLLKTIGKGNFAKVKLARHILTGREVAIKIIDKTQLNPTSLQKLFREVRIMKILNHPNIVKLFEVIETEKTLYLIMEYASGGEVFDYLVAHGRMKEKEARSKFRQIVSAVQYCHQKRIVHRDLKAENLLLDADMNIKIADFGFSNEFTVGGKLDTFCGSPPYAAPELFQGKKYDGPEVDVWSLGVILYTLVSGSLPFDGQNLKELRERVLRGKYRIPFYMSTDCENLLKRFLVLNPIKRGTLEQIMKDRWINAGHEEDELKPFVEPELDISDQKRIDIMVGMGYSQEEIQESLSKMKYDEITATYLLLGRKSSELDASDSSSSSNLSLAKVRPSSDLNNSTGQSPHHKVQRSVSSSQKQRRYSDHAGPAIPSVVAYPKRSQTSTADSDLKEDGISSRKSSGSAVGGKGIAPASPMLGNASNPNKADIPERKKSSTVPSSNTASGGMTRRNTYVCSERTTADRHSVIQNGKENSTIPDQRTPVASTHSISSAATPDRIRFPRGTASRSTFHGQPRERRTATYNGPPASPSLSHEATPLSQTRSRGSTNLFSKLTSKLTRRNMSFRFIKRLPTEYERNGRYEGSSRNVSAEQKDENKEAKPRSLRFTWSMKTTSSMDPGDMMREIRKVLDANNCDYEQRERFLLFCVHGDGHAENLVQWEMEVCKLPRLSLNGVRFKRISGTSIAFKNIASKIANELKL
In short: as §1

[4] = biological target: T4, ~100 representative kinases (Homo sapiens, UniProt P49761); conditions: Protein CLK3; average of three replicates
T4 construct: Recombinant protein kinase domains with a concentration of 2 μM
T4 sequence (P49761 whole entry, the tested form may be a part): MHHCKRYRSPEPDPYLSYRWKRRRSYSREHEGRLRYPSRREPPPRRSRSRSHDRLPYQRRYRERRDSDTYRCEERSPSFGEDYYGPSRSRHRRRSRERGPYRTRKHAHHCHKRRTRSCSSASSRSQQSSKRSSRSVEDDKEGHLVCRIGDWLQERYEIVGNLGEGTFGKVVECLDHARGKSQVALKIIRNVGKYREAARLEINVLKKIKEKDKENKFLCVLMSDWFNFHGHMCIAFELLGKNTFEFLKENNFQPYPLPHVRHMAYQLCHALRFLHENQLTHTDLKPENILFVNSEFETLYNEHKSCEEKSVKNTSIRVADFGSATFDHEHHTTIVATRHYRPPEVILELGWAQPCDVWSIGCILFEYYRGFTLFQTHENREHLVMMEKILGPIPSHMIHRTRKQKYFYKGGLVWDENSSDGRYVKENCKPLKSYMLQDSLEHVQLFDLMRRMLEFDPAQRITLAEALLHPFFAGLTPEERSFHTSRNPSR
In short: as §1

[5] = biological target: T5, ~100 representative kinases (Homo sapiens, UniProt P55201); conditions: Protein BRPF1; average of three replicates
T5 construct: Recombinant protein kinase domains with a concentration of 2 μM
T5 sequence (P55201 1-1214): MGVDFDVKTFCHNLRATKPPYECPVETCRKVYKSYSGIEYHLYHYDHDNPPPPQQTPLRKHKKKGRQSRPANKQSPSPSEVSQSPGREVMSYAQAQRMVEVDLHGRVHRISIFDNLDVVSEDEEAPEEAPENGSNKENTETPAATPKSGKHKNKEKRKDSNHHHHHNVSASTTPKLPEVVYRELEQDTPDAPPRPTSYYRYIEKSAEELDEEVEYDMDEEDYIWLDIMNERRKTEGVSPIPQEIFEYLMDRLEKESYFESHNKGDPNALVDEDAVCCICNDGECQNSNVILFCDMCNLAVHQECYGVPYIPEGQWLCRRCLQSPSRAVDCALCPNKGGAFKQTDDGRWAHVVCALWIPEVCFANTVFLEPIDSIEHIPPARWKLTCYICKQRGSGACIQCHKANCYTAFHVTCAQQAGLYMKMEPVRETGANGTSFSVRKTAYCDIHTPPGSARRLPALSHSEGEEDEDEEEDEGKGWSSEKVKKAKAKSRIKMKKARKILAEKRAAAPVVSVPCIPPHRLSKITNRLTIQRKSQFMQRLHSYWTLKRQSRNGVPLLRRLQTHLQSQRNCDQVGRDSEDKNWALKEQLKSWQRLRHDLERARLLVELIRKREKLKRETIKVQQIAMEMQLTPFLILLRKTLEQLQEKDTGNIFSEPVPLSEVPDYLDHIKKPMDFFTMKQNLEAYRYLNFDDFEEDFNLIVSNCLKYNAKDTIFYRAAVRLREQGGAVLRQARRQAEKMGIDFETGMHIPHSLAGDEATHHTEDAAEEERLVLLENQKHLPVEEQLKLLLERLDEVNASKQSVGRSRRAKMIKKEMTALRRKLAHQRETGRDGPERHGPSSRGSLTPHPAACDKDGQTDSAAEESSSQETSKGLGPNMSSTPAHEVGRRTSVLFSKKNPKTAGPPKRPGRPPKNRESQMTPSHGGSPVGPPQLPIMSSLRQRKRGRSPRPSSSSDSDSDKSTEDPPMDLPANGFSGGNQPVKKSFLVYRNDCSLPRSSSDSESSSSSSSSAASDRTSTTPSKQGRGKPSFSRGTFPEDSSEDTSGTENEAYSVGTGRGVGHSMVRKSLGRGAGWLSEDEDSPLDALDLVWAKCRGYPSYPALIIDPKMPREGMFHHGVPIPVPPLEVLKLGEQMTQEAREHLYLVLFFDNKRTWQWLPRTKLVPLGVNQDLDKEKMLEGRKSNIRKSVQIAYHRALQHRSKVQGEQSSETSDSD
In short: as §1

[6] = biological target: T6, ~100 representative kinases (Homo sapiens, UniProt Q13188); conditions: Protein STK3; DSF; average of three replicates
T6 construct: Recombinant protein kinase domains with a concentration of 2 μM
T6 sequence (Q13188 1-491): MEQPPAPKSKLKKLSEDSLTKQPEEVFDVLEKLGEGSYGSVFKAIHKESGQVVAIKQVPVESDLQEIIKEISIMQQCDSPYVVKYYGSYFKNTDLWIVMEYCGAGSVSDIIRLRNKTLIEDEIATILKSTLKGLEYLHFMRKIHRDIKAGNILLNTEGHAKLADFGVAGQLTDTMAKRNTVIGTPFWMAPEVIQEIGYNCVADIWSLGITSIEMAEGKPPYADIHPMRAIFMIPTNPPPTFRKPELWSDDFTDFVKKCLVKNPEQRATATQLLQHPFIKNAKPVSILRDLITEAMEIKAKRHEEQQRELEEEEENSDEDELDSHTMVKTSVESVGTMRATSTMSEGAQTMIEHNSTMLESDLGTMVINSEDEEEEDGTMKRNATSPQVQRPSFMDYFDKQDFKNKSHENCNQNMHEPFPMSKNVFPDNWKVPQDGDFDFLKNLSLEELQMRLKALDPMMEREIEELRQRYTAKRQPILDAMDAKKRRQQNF
In short: as §1

[7] = biological target: T7, ~100 representative kinases (Homo sapiens, UniProt Q16539)
T7 construct: Recombinant protein kinase domains with a concentration of 2 μM
T7 sequence (Q16539 whole entry, the tested form may be a part): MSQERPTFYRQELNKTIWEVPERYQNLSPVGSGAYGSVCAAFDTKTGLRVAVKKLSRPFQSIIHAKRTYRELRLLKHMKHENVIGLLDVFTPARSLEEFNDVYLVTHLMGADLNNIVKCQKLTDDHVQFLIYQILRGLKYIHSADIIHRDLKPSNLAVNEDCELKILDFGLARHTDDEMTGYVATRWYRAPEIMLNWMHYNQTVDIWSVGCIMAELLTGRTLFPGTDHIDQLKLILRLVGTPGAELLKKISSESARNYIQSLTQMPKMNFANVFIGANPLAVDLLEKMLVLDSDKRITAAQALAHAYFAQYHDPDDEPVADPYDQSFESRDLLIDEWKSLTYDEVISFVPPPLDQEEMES
In short: as §1

[8] = biological target: T8, ~100 representative kinases (Homo sapiens, UniProt Q6PHR2); conditions: Protein ULK3; DSF; average of three replicates
T8 construct: Recombinant protein kinase domains with a concentration of 2 μM
T8 sequence (Q6PHR2 1-472): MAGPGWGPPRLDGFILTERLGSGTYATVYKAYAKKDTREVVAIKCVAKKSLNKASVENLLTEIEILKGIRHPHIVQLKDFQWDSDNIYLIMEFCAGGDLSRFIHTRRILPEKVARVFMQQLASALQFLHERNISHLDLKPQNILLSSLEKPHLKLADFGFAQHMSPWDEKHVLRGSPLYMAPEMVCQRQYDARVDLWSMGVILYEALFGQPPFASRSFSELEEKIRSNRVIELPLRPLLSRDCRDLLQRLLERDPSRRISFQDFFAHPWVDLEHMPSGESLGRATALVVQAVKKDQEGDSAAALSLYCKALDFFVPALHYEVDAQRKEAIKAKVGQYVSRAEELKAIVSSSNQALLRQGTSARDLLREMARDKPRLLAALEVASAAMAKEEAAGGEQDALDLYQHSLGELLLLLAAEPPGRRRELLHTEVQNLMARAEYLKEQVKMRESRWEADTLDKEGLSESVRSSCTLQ
In short: as §1

[9] = biological target: T9, ~100 representative kinases (Homo sapiens, UniProt Q8TDX7); conditions: protein NEK7; average of three replicates
T9 construct: Recombinant protein kinase domains with a concentration of 2 μM
T9 sequence (Q8TDX7 whole entry, the tested form may be a part): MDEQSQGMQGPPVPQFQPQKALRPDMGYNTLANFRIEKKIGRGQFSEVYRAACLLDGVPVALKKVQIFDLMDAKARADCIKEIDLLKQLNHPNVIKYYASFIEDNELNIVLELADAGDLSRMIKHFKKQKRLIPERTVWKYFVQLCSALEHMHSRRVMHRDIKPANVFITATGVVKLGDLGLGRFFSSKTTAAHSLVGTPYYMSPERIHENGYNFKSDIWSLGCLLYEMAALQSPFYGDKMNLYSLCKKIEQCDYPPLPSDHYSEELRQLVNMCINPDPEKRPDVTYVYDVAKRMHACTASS
In short: as §1

[10] = Protein ABL1, average of three replicates
[11] = protein MAPK14, average of three replicates

COc1cc(S(C)(=O)=O)ccc1Nc1nc(N(C)C)c2c(Cl)c[nH]c2n1 [Compound 37]
dTm [1, 10]: 0.38 K | dTm [2]: -0.49 K | dTm [3]: 0.75 K | dTm [4]: 1.12 K | dTm [5]: -0.21 K | dTm [6]: -0.72 K | dTm [7, 11]: -0.35 K | dTm [8]: 1.01 K | dTm [9]: -0.25 K

COc1cc2c(Oc3ccc(NC(=O)C4(C(=O)Nc5ccc(F)cc5)CC4)cc3F)ccnc2cc1OCCCN1CCOCC1 [Foretinib, reference compound]
dTm [1, 10]: 13.44 K | dTm [2]: 1.41 K | dTm [3]: 3.96 K | dTm [4]: 3.35 K | dTm [5]: 0.26 K | dTm [6]: 8.88 K | dTm [7]: 6.85 K | dTm [8]: 14.26 K | dTm [9]: -0.49 K

CCNc1nc(Nc2cc(F)c(C(=O)N3CCOCC3)cc2OC)ncc1C(F)(F)F [GNE-7915]
dTm [1, 10]: 0.74 K | dTm [2]: 0.44 K | dTm [3]: 0.65 K | dTm [4]: 1.84 K | dTm [5]: -1.14 K | dTm [6]: 0.97 K | dTm [7, 11]: 0.16 K | dTm [8]: 1.79 K | dTm [9]: 0.34 K

Cc1ccc(C(=O)Nc2ccc(CN3CCN(C)CC3)c(C(F)(F)F)c2)cc1C#Cc1cnc2[nH]ncc2c1 [GZD-824, reference compound]
dTm [1]: 30.43 K | dTm [2]: -0.44 K | dTm [3]: 3.47 K | dTm [4]: 4.75 K | dTm [5]: -0.65 K | dTm [6]: 7.78 K | dTm [7]: 17.66 K | dTm [8]: 9.35 K | dTm [9]: 1.00 K

C[C@@H]1CN(c2cc(-c3n[nH]c4ccc(OC5(C)CC5)cc34)ncn2)C[C@H](C)O1 [MLi2]
dTm [1, 10]: 0.50 K | dTm [2]: 0.81 K | dTm [3]: -1.07 K | dTm [4]: 3.51 K | dTm [5]: -1.36 K | dTm [6]: 0.09 K | dTm [7, 11]: 0.038 K | dTm [8]: 0.19 K | dTm [9]: 0.03 K

Cn1cc(-c2c[nH]c3ncnc(N4CCOCC4)c23)cc1C#N [PFE-360]
dTm [1, 10]: 3.25 K | dTm [2]: 1.04 K | dTm [3]: 2.70 K | dTm [4]: 5.46 K | dTm [5]: -1.30 K | dTm [6]: 6.99 K | dTm [7, 11]: 0.53 K | dTm [8]: 5.19 K | dTm [9]: -0.13 K
